For experiment [1], the system named is activated human primary PBMC. Description: Anti-proliferative CFSE cell division assay on anti-CD3/CD28-activated PBMC. The conditions noted are these: CFSE, flow cytometry; extract 50-100 μg/mL, cyclotides 1.8-14 μM, melittin 0.05-1.6 μM. The method, boiled down:
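Healthy-donor PBMC were CFSE-labelled (5 μM, 10 min, 37° C.), activated with anti-CD3/CD28 and cultured in RPMI 1640 with 10% FCS at 37° C. with the cyclotide mutants/variants. Proliferation was read as cell division by flow-cytometric CFSE histogram analysis.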
In general terms: Flow cytometry measures light scatter and fluorescence of single cells or particles in a stream.

In experiment [2] the test system is IL-2 mRNA in PHA-L-activated cells. Nature of the experiment: IL-2 gene expression, real-time PCR. Type of experiment: cell-based, human. Particulars: 4 hours, vs control. As to the method: C. IL-2 gene expression analysis using RT-PCR. […] RT-PCR was carried out using specific primers for indicated gene. The data were normalized to the Ct value of the internal housekeeping gene 18s rRNA and the relative mRNA level in the untreated stimulated group was used as calibrator. Data were expressed as mean+SD of three independent experiments.
Total RNA was extracted from controls or treated cells (2×10^6) frozen at −80° C. RNA-purification was performed according to the manufacturer's instructions for the RNeasy mini and Rnase-Free Dnase Set digestion kits (Qiagen, Hilden, Germany). The quantity and purity of extracted RNA was measured by spectrophotometry (Nanodrop, Peqlab, Erlangen, Germany) and purified RNA was reverse transcribed using the RT^2 First Stand Kit (Qiagen, Hilden, Germany).
RT-PCR reactions were carried out on a BioRad MyiQ (BioRad, Munich, Germany) in a final volume of 25 μL using RT^2 qPCR Primer Assay (for IL-2) and SYBR® Green qPCR Mastermix (both from Qiagen, Hilden, Germany). […] Results were expressed as relative gene expression of IL-2 and were determined by comparative Ct method. […]
To determine whether cyclotides have an impact at the gene expression level of the, il-2 gene expression (as control we used 18s rRNA) in PBMC cells was investigated by quantitative real-time PCR (FIG. 12C).
(In general: Real-time PCR tracks product formation cycle by cycle.)

Experiment [3] deals with TNF-alpha production of activated PBMCs. Nature of the experiment: TNF-alpha secretion of PBMC, ELISA-based FACS. The format is cell-based, human. The conditions noted are these: 24 h + 6 h PMA/ionomycin; T20K 4 μM, CsA 5 μg/mL. On the procedure:
FIG. 15. […] Untreated cells were used as control. Following 24 h or 36 h of cultivation, the cells were restimulated with PMA/Ionomycin for further 6 hour. […] The data are presented as mean and standard deviation (SD) of three independent experiments.
Activated cells were resuspended in 50 μl of medium, transferred into a 96-well plate and treated with 10 μg/ml PHA-L. After incubation for 24 h cells were re-stimulated with PMA (50 ng/ml) und ionomycin (500 ng/ml) for 6 h. Next, the cells were transferred into Eppendorf tubes, centrifuged (5 min, 3000 RPM, 20° C.) und 50 μl of the supernatant was again transferred into new tubes and stored at −20° C. Production of cytokines was measured and quantified using the FlowCytomix™ kit according to manufacturer's instructions.
Therefore it is of interest to determine whether cyclotides only have anti-proliferative effects or also affect the effector function of T-lymphocytes, which would directly relate to changes in the IFN-gamma and TNF-alpha production. Therefore, the production of both cytokines of cyclotide-treated, activated PBMCs at an early time point after PBMC activation was tested.

Experiment [4] has as its system spleenocytes restimulated with MOG35-55. Description: Cytokine release of spleenocytes from treated EAE mice, ELISA. The format is cell-based, mouse. As to the method: FIG. 21. Effect on cytokine release of ex vivo isolated PBMC at day 3. Spleenocytes of sacrificed mice were isolated and restimulated with MOG35-55 (30 μg/mL) for three days or left untreated. Supernatants of these cells were used for analyzing cytokine release in ELISAs. In (A) interleukin 2 release was highest in splenic T-cells isolated from naïve mouse group that were restimulated with MOG, correlating with disease course. […] There was hardly any cytokine IL4 detectable (E), opposing a TH2 immune response, which was expected.
Spleens of sacrificed mice were taken and transferred into a 6 cm Petri Dish with 5 mL sterile PBS. To receive a spleenocyte suspension, spleens were meshed and filtered through 70 μm nylon sieve. Cells were centrifuged at 1200 rpm for 5 minutes and resuspended in RPMI 1640 media supplemented with 10% fetal calf serum (FCS), 2 mM L-glutamine, penicillin (100 U/mL), and streptomycin (100 μg/mL). Spleenocytes were cultivated at a concentration of 3×10^6/mL in a 48-well flat-bottom plate (500 μL/well). Cells were stimulated with 30 μg/mL MOG35-55 or left untreated and incubated at 37° C. for three days. Supernatants and cells were taken stored at −20° C. until further experiments. […] After 12 hours MOG or T20K was added to appropriate wells. Supernatants were stored after 24 hours and after 48 hours at −20° C.
Supernatants of stimulated spleenocytes were analyzed for their IL2, IL17, INFγ, IL4 and IL22 cytokine release using anti-mouse antibodies for ELISA from eBioscience according to the manufacturer's instructions. The color reaction was evaluated at an optical density of 450 nm by the microplate reader Synergy H4 (BioTek).
On the technique in general: ELISA stands for enzyme-linked immunosorbent assay.

Bridge positions count the residues as written; N and C are the ends. Peptide text beside a SMILES is read from it.

In the case of `CC(C)C[C@@H]1NC(=O)CNC(=O)[C@H](CC(N)=O)NC(=O)[C@H](CCCNC(=N)N)NC(=O)[C@H]([C@@H](C)O)NC(=O)[C@@H]2CSSC[C@@H]3NC(=O)[C@H]([C@@H](C)O)NC(=O)CNC(=O)CNC(=O)[C@H](C(C)C)NC(=O)[C@@H]4CSSC[C@H](NC(=O)[C@H](CCCCN)NC(=O)[C@H](CSSC[C@H](NC(=O)[C@H](C(C)C)NC(=O)[C@@H]5CCCN5C1=O)C(=O)NCC(=O)N[C@@H](CCC(=O)O)C(=O)N[C@@H]([C@@H](C)O)C(=O)N4)NC(=O)CNC(=O)[C@@H]1CCCN1C(=O)[C@H]([C@@H](C)O)NC(=O)[C@H](CC(N)=O)NC3=O)C(=O)N[C@@H](CO)C(=O)N[C@@H](Cc1c[nH]c3ccccc13)C(=O)N1CCC[C@H]1C(=O)N[C@@H](C(C)C)C(=O)N2` [Kalata T20K] (cyclo(CGETCVGGTCNTPGCKCSWPVCTRNGLPV); disulfide 1-15, 5-17, 10-22 (inferred); ring closure inferred), the “cell division / proliferation of activated PBMC (in words)” value in experiment [1] is “show anti-proliferative capacity”. In experiment [2], the “level of IL-2 mRNA” value is “clearly decreases the level of IL-2 mRNA”. The “TNF-alpha expression as compared to the control, 24 h” value in experiment [3] is reported as 23%±10.6. For the same compound, the “IL2 release of spleenocytes from mice treated at day 7” value in experiment [4] (T20K (7), after MOG stimulation, vs naive group) is “IL2 release was lower than in naïve group”. Also, the “IL17, IL22 and INFγ release of spleenocytes from pre-treated mice” value in experiment [4] (T20K (-7, 0)) was “inhibitory effect could also be demonstrated towards the cytokines IL17, IL22 and INFγ in T-cells of T20K (−7, 0) treated mice, although not significantly”. Also, the “IL2 production of spleenocytes from pre-treated mice” value in experiment [4] (T20K day -7 or 0, MOG35-55 30 μg/mL, three days) is reported as “significant inhibition of the IL2 production”.
